Source: patent publication US6214859A, “Ethylamine derivatives” (Fujimoto Brothers Co., Ltd., priority 1997, dated 2001)

Legend:
[1] = Toxicity screening using primary cultured hepatocyte (LDH release); format: cell-based, rat; details: rat, primary hepatocytes, 24 hr, control 0.5% saline or 0.5% DMSO, read-out: Percent control of LDH release
Description: (§1) The hepatocytes was prepared from rat liver by collagenase perfusion method and suspension containing 5×10^5 cells/ml were prepared. After cultivation for 24 hr, the suspension was exchanged to the William's Medium E (GIBCO BRL) containing 10 or 100 μM of the compounds of this invention. After cultivation for 24 hr, the activity of lactate dehydrogenase (LDH) released in the medium was measured.

[2] = system: primary cultured hepatocyte; assay: as above; format: cell-based, rat; details: 10 μM
Description: as §1

[3] = system: rats reduced learning ability by tetrabenazine; assay: Conditioned avoidance task in the shuttle box (tetrabenazine-treated rats); format: in vivo, rat; details: tetrabenazine 1 mg/kg s.c., significance and direction
Description: The method described in Life Sci., 58, 817-827 (1996) was used. The effects on conditioned avoidance reflex (CARs) was analyzed in the shuttle box using male and female rats (weighing 200-220 g) whose leaning abilities were reduced by treatment of tetrabenazine. The instrument was constructed, according to the device described in Psychopharmacologia 10, 1-5 (1966) by the Research Institute for Electrical Industry (Budapest, Hungary). The male and female rats (weighing 200-220 g) were trained to cross the berrier under the influence of a conditioned stimulus (CS) (light flash and buzzer sounds). […] And the performance which was not related to this condition was noted as an intersignal reaction (IR). The rats were trained with 100 trials per day for 5 days. One trial consisted of 15 sec intertrial interval. The saline solution of tetrabenazine was administered at a dose of 1 mg/kg subcutaneously before one hour prior to the test and then the solution of the compounds of this invention were administered at the doses of 1, 2, 2.5 and 5 mg/kg subcutaneously with the simultaneous administration of tetrabenazine. The nmbers of CARs, EFs and IRs were automatically counted and evaluated by multi-way analysis of variance (ANOVA).

[4] = system: dopamine release, substantia nigra; assay: Release of biogenic amines from brain tissue: dopamine, substantia nigra; format: in vivo, Wistar rats
Description: (§2) The method described in Life Sci., 56, 611-620 (1995) was used. After Wistar rats were decapitated, appropriate brain samples, which were striatun, substantia nigra, tuberculum olfactorium, locus coeruleus and raphe, were removed quickly and soaked in oxygenated (95% O2 and 5% CO2) Krebs solution at 37° C. The composition of Krebs solution was as follows in […]: NaCl 111, KCl 4.7, CaCl2 2.5, MgSO4 1.64, NaHCO3 25, KH2 PO4 1.2, glucose 11, 50 mg/l ascorbic add and 20 mg/l EDTA-2 Na. The preparations, soaked in one organ bath, were as follows: 1) four pieces of striatum (each halved), 2) four pieces of substantia nigra, 3) four pieces of tuberculum olfactorium; 4) eight pieces of locus coeruleus; 5) eight pieces of raphe. After incubation of the appropriate tissue for 20 min, the Krebs solution was replaced, the tissue soaked for 20 min in Krebs solution dissolving the compounds of this invention and the amount of biogenic amine released during this period of time was estimate. The compounds of this invention and PPAP, control compound, were dissolved in saline and were administered subcutaneously before 30 min to removing brain sample. For measuring noradrenaline and dopamine, samples were purified on 60 mg alumina containing micro columns (BDH Chemicals Ltd.) according to the method described in J. Pharmacol. Exp. Ther., 138, 360-372 (1962) For measuring serotonin, samples were purified on 15 mg Sephadex G-10 micro columns (Pharmacia). Dopamine, noradrenaline and serotonin were determined by high performance liquid chromatography (Waters 746 data module) with electrochemical detection (Waters 460 electrochemical detector). Waters Resolve 5μ Spherical C18 3.9×150 mm column was used as separating column and triethylamine-phosphate buffer (pH 5.2), containing 200 mg/l octane sulfonate sodium and 18 mg/l EDTA-2 Na with 6% acetonitrile, was used as mobile phase. The release amount of appropriate amine was noted as nmol/g tissue released for 20 min. deference of means tested by Student's t-test and significant level was set at P<.05.

[5] = system: noradrenaline release, locus coeruleus; assay: Release of biogenic amines from brain tissue: noradrenaline, locus coeruleus; format: in vivo, Wistar rats
Description: as §2

[6] = system: dopamine release, striatum; assay: Release of biogenic amines from brain tissue: dopamine, striatum; format: in vivo, Wistar rats
Description: as §2

serotonin release, raphe = assay: Release of biogenic amines from brain tissue: serotonin, raphe; format: in vivo, Wistar rats
Description: as §2

[7] = system: dopamine release, tuberculum olfactorium; assay: Release of biogenic amines from brain tissue: dopamine, tuberculum olfactorium; format: in vivo, Wistar rats
Description: as §2

D2 receptor = assay: Affinity to D2 receptor; set-up: species or system rat; details: read-out: Affinity to D2 receptor (MIC50; mole concentration for 50% inhibition of binding); 2.0 nM spiperone
5-HT2 receptor = molecular target: T1, 5-HT2 receptor (Rattus norvegicus, UniProt P14842); assay: Affinity to 5-HT2 receptor; format: binding
T1 construct: The precipitate was used as the solution of receptor; from tissue; host or cells: rat brain (whole) crude membranes

D1 receptor = molecular target: T2, D1 receptor (Rattus norvegicus, UniProt P18901); assay: Affinity to D1 receptor; format: binding
T2 construct: The precipitate was used as the solution of receptor; from tissue; host or cells: rat brain (whole) crude membranes

α2 receptor = assay: Affinity to α2 receptor; set-up: species or system rat; details: read-out: Affinity to α2 receptor (MIC50; mole concentration for 50% inhibition of binding); 0.7 nM ^3H-rauwolscine
5-HT1 receptor = assay: Affinity to 5-HT1 receptor; set-up: species or system rat; details: read-out: Affinity to 5-HT1 receptor (MIC50; mole concentration for 50% inhibition of binding); 2 nM ^3H-5-HT
α1 receptor = assay: Affinity to α1 receptor; set-up: species or system rat; details: read-out: Affinity to α1 receptor (MIC50; mole concentration for 50% inhibition of binding); 0.25 nM ^3H-prazocin; 90 min
Description: The solution of receptor was prepared as follows. As soon as rats were decapitated, brain was removed and its weight was measured. Its brain was homogenized in ten times volumes of ice-cold 0.35 M sucrose (pH 7.4) by glass homogenizer with teflon pestle which was revolted by motors. Thereafter, the homogenate was centrifuged at 4° C. at 900×g for 10 min and the supernatant was, furthermore, recentrifuged at 4° C. at 22,000×g for 20 min. The precipitate was suspended by addition of 5 mM phosphate buffer solution (pH 7.4). After the suspension was incubated at 37° C. for 30 min, the suspension was recentrifuged at 4° C. at 22,000×g for 20 min. The precipitate was resuspended by addition of 10 ml of 5 mM phosphate buffer solution (pH 8.0). The precipitate was used as the solution of receptor.
^3 H-prazocin was used as a ligand. 0.25 nM ^3 H-prazocin in 5 mM phosphate buffer (pH 8.0), the compound of this invention and the solution of receptor were added in tube and the mixture were incubated at 25° C. for 90 min. In addition, the […] binding was shown by binding value of ^3 H-prazocin under the coexistence with 0.1 μM prazocin. The binding reaction was carried out as follows. After ^3 H-prazocin (binding type: B) bound to receptor using glassfiberfilter (pore size: 0.5 μm, Whatman GF/C.) and free type of prazocin (free type: F) were separated with B/F separator (Brandel, USA), only the binding type of ^3 H-prazocin was collected. The binding type of ^3 H-prazocin absorbed to glass-fiber filter was washed with ice-cold saline solution and was remove to vial. After 10 ml of scintillation cocktail was added in it, the radioactivity was determined. From the binding inhibition rate of α1 receptor and ligand, affinity of the compounds of this invention to α1 receptor was measured.
If affinity of certain compound to a receptor is high, the binding ligand and receptor is inhibited.

T2 sequence (P18901 whole entry): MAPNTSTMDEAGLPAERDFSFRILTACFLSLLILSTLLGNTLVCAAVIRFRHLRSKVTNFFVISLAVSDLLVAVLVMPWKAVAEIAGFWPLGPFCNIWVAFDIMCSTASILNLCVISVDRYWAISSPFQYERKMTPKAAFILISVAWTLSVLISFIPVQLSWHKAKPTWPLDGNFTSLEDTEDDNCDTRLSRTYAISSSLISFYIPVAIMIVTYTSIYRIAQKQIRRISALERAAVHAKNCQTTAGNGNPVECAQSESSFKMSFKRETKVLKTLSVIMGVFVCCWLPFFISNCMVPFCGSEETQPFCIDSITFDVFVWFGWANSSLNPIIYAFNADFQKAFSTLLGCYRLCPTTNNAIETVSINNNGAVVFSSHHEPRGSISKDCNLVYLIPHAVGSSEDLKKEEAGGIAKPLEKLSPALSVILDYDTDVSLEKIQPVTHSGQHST
T1 sequence (P14842 whole entry): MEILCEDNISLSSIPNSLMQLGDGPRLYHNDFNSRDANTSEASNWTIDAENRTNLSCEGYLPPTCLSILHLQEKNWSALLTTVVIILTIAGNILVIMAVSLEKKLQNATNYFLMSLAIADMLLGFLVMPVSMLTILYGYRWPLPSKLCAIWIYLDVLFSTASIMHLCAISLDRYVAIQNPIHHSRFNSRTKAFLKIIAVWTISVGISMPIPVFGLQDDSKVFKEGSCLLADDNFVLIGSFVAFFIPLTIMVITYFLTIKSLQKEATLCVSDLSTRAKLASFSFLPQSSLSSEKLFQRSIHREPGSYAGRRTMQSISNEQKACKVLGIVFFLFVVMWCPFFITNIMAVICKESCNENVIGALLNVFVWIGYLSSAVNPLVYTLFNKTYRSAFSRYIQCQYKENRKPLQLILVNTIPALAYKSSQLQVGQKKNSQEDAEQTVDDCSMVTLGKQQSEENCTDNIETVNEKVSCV

Compound	activity at 24 h, 10 µM [1] [%]	activity at 24 h, 100 µM [1] [%]	Condition Avoidance Reflex (CARs) ([3]; 5 mg/kg s.c.)	Intersignal Reactions (IRs) ([3]; 5 mg/kg s.c.)	IC50 (D2 receptor) [µM]	IC50 (5-HT2 receptor) [µM]	IC50 (D1 receptor) [µM]	IC50 (α2 receptor) [nM]	IC50 (5-HT1 receptor) [µM]	IC50 (α1 receptor) [µM]	Condition Avoidance Reflex (CARs) ([3]; 1 mg/kg s.c.)	Release of dopamine, substantia nigra ([4]; 0.01 mg/kg s.c.)	Release of noradrenaline, locus coeruleus ([5]; 0.01 mg/kg s.c.)	Release of dopamine, striatum ([6]; 0.01 mg/kg s.c.)	Release of serotonin, raphe (serotonin release, raphe; 0.01 mg/kg s.c.)	Release of dopamine, tuberculum olfactorium ([7]; 0.01 mg/kg s.c.)	other results
CCCNC(CCC)Cc1ccccc1 (racemic) [PPAP, 1-phenyl-2-propylaminopentane, reference compound]	127 ± 5.45	152 ± 11.1	**** .Arrow-up bold.	**** .Arrow-up bold.	–	–	–	–	–	–	–	–	–	–	–	–	LDH release, significance in words [2]: released LDH significantly; Release of dopamine, substantia nigra ([4]; 0.25 mg/kg s.c.): 4.0 ± 0.24 nmol/g tissue, for 20 min; Release of dopamine, substantia nigra ([4]; 1.00 mg/kg s.c.): 4.0 ± 0.21 nmol/g tissue, for 20 min; Release of noradrenaline, locus coeruleus ([5]; 0.25 mg/kg s.c.): 3.8 ± 0.30 nmol/g tissue, for 20 min; Release of noradrenaline, locus coeruleus ([5]; 1.00 mg/kg s.c.): 4.6 ± 0.15 nmol/g tissue, for 20 min; Release of dopamine, striatum ([6]; 0.25 mg/kg s.c.): 3.5 ± 0.19 nmol/g tissue, for 20 min; Release of dopamine, striatum ([6]; 1.00 mg/kg s.c.): 3.6 ± 0.19 nmol/g tissue, for 20 min; Release of serotonin, raphe (serotonin release, raphe; 0.25 mg/kg s.c.): 0.416 ± 0.03 nmol/g tissue, for 20 min; Release of serotonin, raphe (serotonin release, raphe; 1.00 mg/kg s.c.): 0.741 ± 0.01 nmol/g tissue, for 20 min; Release of dopamine, tuberculum olfactorium ([7]; 0.25 mg/kg s.c.): 3.7 ± 0.10 nmol/g tissue, for 20 min; Release of dopamine, tuberculum olfactorium ([7]; 1.00 mg/kg s.c.): 3.2 ± 0.21 nmol/g tissue, for 20 min
CC(C)C[C@H]1C(=O)N2CCC[C@H]2[C@]2(O)O[C@](NC(=O)[C@@H]3C=C4c5cccc6[nH]c(Br)c(c56)C[C@H]4N(C)C3)(C(C)C)C(=O)N12 [Bromocriptine, reference compound]	–	–	–	–	0.01	1	10	100	0.1	0.01	–	–	–	–	–	–	–
CCCNC(CCC)Cc1cccc2[nH]ccc12.Cl (stereo not shown) [Compound No. 21, 1-(Indol-4-yl)-2-propylaminopentane Hydrochloride]	110 ± 4.42	130 ± 9.68	–	–	> 10	> 10	> 10	700	> 10	> 10	**** .Arrow-up bold.	10.0 ± 0.30 nmol/g tissue, for 20 min	4.6 ± 0.40 nmol/g tissue, for 20 min	5.4 ± 0.17 nmol/g tissue, for 20 min	0.354 ± 0.00 nmol/g tissue, for 20 min	7.4 ± 0.15 nmol/g tissue, for 20 min	Condition Avoidance Reflex (CARs) ([3]; 0.5 mg/kg s.c.): ** .Arrow-up bold.
CCCNC(CCC)Cc1cc2ccccc2o1.Cl (stereo not shown) [Compound No. 25, 1-(Benzofuran-2-yl)-2-propylaminopentane Hydrochloride]	90.3 ± 2.85	112 ± 37	**** .Arrow-up bold.	* .Arrow-up bold.	> 10	20	> 10	1000	> 10	> 10	**** .Arrow-up bold.	6.6 ± 0.04 nmol/g tissue, for 20 min	4.3 ± 0.20 nmol/g tissue, for 20 min	5.3 ± 0.14 nmol/g tissue, for 20 min	0.457 ± 0.04 nmol/g tissue, for 20 min	6.5 ± 0.20 nmol/g tissue, for 20 min	Escape Failures (EFs) ([3]; 1 mg/kg s.c.): * .dwnarw.
C#CCN(C)[C@H](C)Cc1ccccc1 [Selegiline, reference compound]	–	–	–	–	> 10	> 10	–	2000	> 10	> 10	–	–	–	–	–	–	–
